Results on 14 molecules are retold here after patent US20250296938A1, “Compounds that Interact with the Ras Superfamily for the Treatment of Cancers, Inflammatory Diseases, Rasopathies, and Fibrotic Disease” (SHY Therapeutics, LLC, priority 2018, published 2025).

One test has as its target T1, KRas G12D mutant (Homo sapiens, UniProt P01116, G12D).
T1 construct: fused on or other part: His tag, used for capture on nickel-coated plates
Description: Ras GTP binding domain inhibition assay (Cy3-GTP/Cy5-GTP competition). Conditions: at 20 μM, with SOS; read-out: KRas G12D mutant + SOS: % inh. As to the method: The following method was developed as specific assay for the following proteins: KRas wild type, KRas Q61H mutant, KRas G12C mutant, KRas G12D mutant, HRas wild type, Rac-1, and Rho-A.
• 25 mM Tris-HCl, pH 7.4 • 27 mM KCl • 137 mM NaCl • 1 mM MgCl2 • 1 mM DTT
• 50 mM Tris-HCl, pH 7.0 • 1 mM MgCl2 • 1 mM DTT
The small GTPases proteins: KRas wild type. KRas Q61H mutant, KRas G12C mutant, KRas G12D mutants, HRas wild type, Rac-1, and Rho-A were expressed as His-tagged proteins. In addition, the Guanosine nucleotide Exchange Factor (GEF) Sos protein (residues 556-1049) was expressed as a His-tagged protein. In cells, the guanine nucleotide exchange factor Sos protein promotes activation of Ras proteins by stimulating an exchange of GDP for GTP. The inclusion of Sos to the Ras GTP binding domain inhibition assay may be considered as an alternative representation of physiological cellular conditions for evaluating the inhibitory activity of some of the tested small molecules.
For the assay, all purified small GTPases proteins were diluted in Buffer-I or Buffer-II to a final concentration of 10-30 μg/mL. 200 μL of each diluted protein was added to a nickel-coated 96-well plate and incubated overnight at 4° C. Then the protein solution was discarded and 200 μL of Buffer-I or Buffer-II was added to each well in the presence of 1% DMSO. Compounds to be tested were added to the protein-coated wells at final concentration of 20 μM, and incubated for 3 hours at room temperature with and without […] of Sos added to the final hour of the incubation. When performing IC50 measurements a serial dilution of all tested concentrations was added. Then Cy3-GTP or Cy5-GTP was added to each well to a final concentration of 100 nM. The labeled GTP was incubated for 45 minutes at room temperature. Following GTP incubation, wells were washed 3× in Buffer-I or Buffer-II and 200 μL of Buffer-I or Buffer-II was added to each well. Following washes, the amount of bound labeled-GTP was measured using a SpectraMax M3 (Molecular Devices).
For the molecule `CO[C@H]1CC[C@@H](Nc2nc(-c3nc(C)cn3C)nc3sc(-c4cccc5[nH]ncc45)c(C)c23)C1` [drawing 1032], the inhibition at 20 µM lay within 26 to 50%.

Staying with this test, now noted: at 20 μM, without SOS; read-out: KRas G12D mutant: % inh.
In the case of `CO[C@H]1CC[C@@H](Nc2nc(-c3nc(C)cn3C)nc3sc(-c4cccc5[nH]ncc45)c(C)c23)C1` [drawing 1032], the inhibition at 20 µM is 26 to 50%.

Still in this test, the particulars now being: cell-free, 100 nM Cy3-GTP or Cy5-GTP.
As to `COC1CCN(C(=O)c2sc3nc(-c4nccn4C)nc(N[C@H]4C[C@@H](OC)C4)c3c2C2=CC=CCC=C2)C1` (stereo partly drawn), the IC50 (commonly the point on the concentration scale where inhibition reaches its midpoint) lay within 5 to 10 µM.
`CO[C@H]1CC[C@@H](Nc2nc(-c3nccn3C)nc3sc(-c4ccn(C(C)C)n4)c(C4=CC=CCC=C4)c23)C1` [drawing 1063]: the IC50 is 1 to 4.99 µM.
On the same count and under the same terms, the result for `Cc1c(-c2ccn(C)n2)sc2nc(-c3nccn3C)nc(NCCCS(C)(=O)=O)c12` [drawing 1064] reads 5 to 10 µM; that for `Cc1c(-c2ccn(C)n2)sc2nc(-c3nccn3C)nc(NCCCC(=O)N(C)C)c12` [drawing 1065], 5 to 10 µM.
The same measure, in the same setting: as for `Cc1c(-c2ccn(C)n2)sc2nc(-c3nccn3C)nc(NCCOC(=O)N(C)C)c12` [drawing 1066], the figure is 5 to 10 µM.
Same read-out and setting: the result for `CO[C@H]1CC[C@@H](Nc2nc(-c3nccn3C)nc3sc(-c4ccn(C(C)C)n4)c(C)c23)C1` [drawing 1067] reads 5 to 10 µM.
Regarding `CO[C@H]1C[C@@H](Nc2nc(-c3nccn3C)nc3sc(C(=O)NC(C)C)c(-c4ccccc4)c23)C1` [drawing 1068], the IC50 was in the range of 5 to 10 µM.
On the same count and under the same terms, as for `COCCNC(=O)c1sc2nc(-c3nccn3C)nc(N[C@H]3C[C@@H](OC)C3)c2c1-c1ccccc1` [drawing 1069], the figure is 5 to 10 µM; as for `CO[C@H]1C[C@@H](Nc2nc(-c3nccn3C)nc3sc(C(=O)N4CCOCC4)c(-c4ccccc4)c23)C1` [drawing 1070], 5 to 10 µM; as for `CO[C@H]1CC[C@@H](Nc2nc(-c3nccn3C)nc3sc(C(=O)NC(C)C)c(-c4ccccc4)c23)C1` [drawing 1072], 5 to 10 µM.
Turning to `COCCNC(=O)c1sc2nc(-c3nccn3C)nc(N[C@@H]3CC[C@H](OC)C3)c2c1-c1ccccc1` [drawing 1073], the 50% inhibitory concentration (IC50) fell in the range of 5 to 10 µM.
The same measure, in the same setting: as for `CO[C@H]1CC[C@@H](Nc2nc(-c3nccn3C)nc3sc(C(=O)N4CCCC4)c(-c4ccccc4)c23)C1` [drawing 1074], the figure is 5 to 10 µM; as for `CO[C@H]1CC[C@@H](Nc2nc(-c3nccn3C)nc3sc(C(=O)N4CCOCC4)c(-c4ccccc4)c23)C1` [drawing 1075], 5 to 10 µM.
